According to ChEMBL document CHEMBL1201862, “PubChem BioAssay data set” (2004):
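Dose response: 5 concentrations. Exposure: 48 h. Format: 96-well plates. Endpoint: linear interpolation; highest concentration if not reached. The concentration for 50% growth inhibition is given as GI50.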 Calls of active or inactive are those of the source. Cut-off read from the data, not from the text of the source: active = GI50 up to about 1.1 µM and inactive = higher.

Experiments:
Experiment in all cases: NCI-60 cell line screen, 48 h
LXFL 529 = test system: LXFL 529
KM12 = test system: KM12
SF-539 = test system: SF-539
SF-268 = test system: SF-268
OVCAR-8 = test system: OVCAR-8
M19-MEL = test system: M19-MEL
RPMI-8226 = test system: RPMI-8226
A549 = test system: A549
XF498 = test system: XF498
UO-31 = test system: UO-31
HL-60 = test system: HL-60
SN12C = test system: SN12C
SNB-78 = test system: SNB-78
786-0 = test system: 786-0
COLO 205 = test system: COLO 205
EKVX = test system: EKVX
HT-29 = test system: HT-29

Measured: GI50

Nc1n/c(=N\c2ccccc2)ss1
inactive: LXFL 529 > 100 µM | KM12 > 100 µM | SF-539 > 100 µM | SF-268 > 100 µM | OVCAR-8 > 100 µM | M19-MEL 99.5 µM | RPMI-8226 > 100 µM | A549 > 100 µM | XF498 > 100 µM | UO-31 > 100 µM | HL-60 19.9 µM | SN12C > 100 µM | SNB-78 > 100 µM | 786-0 > 100 µM | COLO 205 > 100 µM | EKVX > 100 µM | HT-29 > 100 µM

O=C(c1ccccc1)C1S(=O)(=O)OCCOS1(=O)=O
inactive: LXFL 529 > 100 µM | KM12 > 100 µM | SF-539 > 100 µM | SF-268 > 100 µM | OVCAR-8 > 100 µM | M19-MEL > 100 µM | RPMI-8226 > 100 µM | A549 > 100 µM | XF498 > 100 µM | UO-31 > 100 µM | HL-60 > 100 µM | SN12C > 100 µM | SNB-78 > 100 µM | 786-0 > 100 µM | COLO 205 > 100 µM | EKVX > 100 µM | HT-29 > 100 µM

COc1ccccc1NC(=O)CC(=O)n1nc(C)c(/N=N/c2ccccc2C(=O)O)c1C
inactive: LXFL 529 > 100 µM | KM12 > 100 µM | SF-539 > 100 µM | SF-268 > 100 µM | OVCAR-8 > 100 µM | M19-MEL > 100 µM | RPMI-8226 > 100 µM | A549 > 100 µM | XF498 > 100 µM | UO-31 48.6 µM | HL-60 > 100 µM | SN12C > 100 µM | SNB-78 > 100 µM | 786-0 > 100 µM | COLO 205 > 100 µM | EKVX 29.6 µM | HT-29 > 100 µM

CCOc1ccc(NC(=O)C2=C(C)NC(C)=C(C(=O)Nc3ccc(OCC)cc3)C2c2ccc([N+](=O)[O-])cc2)cc1
inactive: LXFL 529 22.1 µM | KM12 29.9 µM | SF-539 24.3 µM | SF-268 27.4 µM | OVCAR-8 35 µM | M19-MEL 26.2 µM | RPMI-8226 13.8 µM | A549 17.9 µM | XF498 25.3 µM | UO-31 17.7 µM | HL-60 18.3 µM | SN12C 42.9 µM | SNB-78 34.1 µM | 786-0 29.3 µM | COLO 205 17.8 µM | EKVX 29 µM | HT-29 33.9 µM
